Test results reported in ChEMBL document CHEMBL3991601, “The target landscape of clinical kinase drugs” (Science, 2017).
Active and inactive are the calls of the source. For most assays here, no stated cut-off is given here; in the data, actives have a measured Kd and inactives only a lower limit.

Key:
[1] = molecular target: T1, Mitogen-activated protein kinase kinase kinase 5 (Homo sapiens, UniProt Q99683)
T1 sequence (Q99683 whole entry): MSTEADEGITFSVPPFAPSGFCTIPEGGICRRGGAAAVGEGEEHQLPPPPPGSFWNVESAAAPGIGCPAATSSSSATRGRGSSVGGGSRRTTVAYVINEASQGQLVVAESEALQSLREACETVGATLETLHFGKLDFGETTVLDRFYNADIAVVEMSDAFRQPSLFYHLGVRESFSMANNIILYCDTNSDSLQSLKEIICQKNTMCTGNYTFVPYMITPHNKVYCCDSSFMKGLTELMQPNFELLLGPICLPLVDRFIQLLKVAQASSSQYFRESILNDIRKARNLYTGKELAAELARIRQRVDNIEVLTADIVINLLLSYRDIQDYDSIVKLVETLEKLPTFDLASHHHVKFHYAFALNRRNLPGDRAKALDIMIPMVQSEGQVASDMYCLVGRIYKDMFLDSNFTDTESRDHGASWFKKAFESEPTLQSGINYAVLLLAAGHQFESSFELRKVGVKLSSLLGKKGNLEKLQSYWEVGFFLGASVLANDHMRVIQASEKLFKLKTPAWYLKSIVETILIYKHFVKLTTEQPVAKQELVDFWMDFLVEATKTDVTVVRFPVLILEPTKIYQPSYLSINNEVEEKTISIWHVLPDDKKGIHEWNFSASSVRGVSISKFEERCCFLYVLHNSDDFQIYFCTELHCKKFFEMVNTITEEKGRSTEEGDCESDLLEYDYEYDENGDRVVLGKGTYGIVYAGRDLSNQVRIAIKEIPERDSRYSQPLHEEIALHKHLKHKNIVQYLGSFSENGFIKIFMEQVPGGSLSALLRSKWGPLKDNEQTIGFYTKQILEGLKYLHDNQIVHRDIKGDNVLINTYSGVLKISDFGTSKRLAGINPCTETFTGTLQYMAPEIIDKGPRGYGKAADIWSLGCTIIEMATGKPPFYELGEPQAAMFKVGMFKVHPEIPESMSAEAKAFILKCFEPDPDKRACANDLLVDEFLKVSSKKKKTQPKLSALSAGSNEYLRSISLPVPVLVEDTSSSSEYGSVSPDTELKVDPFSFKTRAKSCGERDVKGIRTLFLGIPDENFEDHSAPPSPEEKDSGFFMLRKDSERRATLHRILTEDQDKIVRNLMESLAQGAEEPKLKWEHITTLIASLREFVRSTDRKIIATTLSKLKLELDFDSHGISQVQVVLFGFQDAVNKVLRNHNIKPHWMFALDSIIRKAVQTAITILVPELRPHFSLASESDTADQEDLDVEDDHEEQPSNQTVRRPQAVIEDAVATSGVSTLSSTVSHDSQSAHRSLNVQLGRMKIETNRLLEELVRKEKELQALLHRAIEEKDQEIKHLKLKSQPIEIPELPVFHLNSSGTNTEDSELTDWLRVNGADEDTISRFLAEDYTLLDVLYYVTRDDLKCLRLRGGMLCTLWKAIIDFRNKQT

[2] = molecular target: LIM domain kinase 2 (Homo sapiens, UniProt P53671)
LIM domain kinase 2, sequence (P53671 whole entry, the tested form may be a part): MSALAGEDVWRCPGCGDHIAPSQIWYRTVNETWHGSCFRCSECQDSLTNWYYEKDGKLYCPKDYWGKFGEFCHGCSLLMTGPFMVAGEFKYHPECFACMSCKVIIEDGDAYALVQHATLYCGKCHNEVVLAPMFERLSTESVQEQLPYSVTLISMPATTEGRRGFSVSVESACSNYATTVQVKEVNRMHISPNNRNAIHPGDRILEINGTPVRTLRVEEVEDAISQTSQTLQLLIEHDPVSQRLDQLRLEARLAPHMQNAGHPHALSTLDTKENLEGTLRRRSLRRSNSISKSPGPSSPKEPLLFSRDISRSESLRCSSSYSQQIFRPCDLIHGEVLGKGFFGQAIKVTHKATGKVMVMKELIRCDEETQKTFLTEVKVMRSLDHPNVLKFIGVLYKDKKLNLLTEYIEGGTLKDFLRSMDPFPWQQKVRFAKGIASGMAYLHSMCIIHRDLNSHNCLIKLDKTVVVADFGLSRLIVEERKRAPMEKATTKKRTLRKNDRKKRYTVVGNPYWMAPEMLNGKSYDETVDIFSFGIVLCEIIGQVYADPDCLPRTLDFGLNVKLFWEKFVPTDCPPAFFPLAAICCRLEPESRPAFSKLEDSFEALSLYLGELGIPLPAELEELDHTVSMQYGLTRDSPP

[3] = molecular target: Proto-oncogene tyrosine-protein kinase Src (Homo sapiens, UniProt P12931)
Proto-oncogene tyrosine-protein kinase Src, sequence (P12931 2-536 limits assumed): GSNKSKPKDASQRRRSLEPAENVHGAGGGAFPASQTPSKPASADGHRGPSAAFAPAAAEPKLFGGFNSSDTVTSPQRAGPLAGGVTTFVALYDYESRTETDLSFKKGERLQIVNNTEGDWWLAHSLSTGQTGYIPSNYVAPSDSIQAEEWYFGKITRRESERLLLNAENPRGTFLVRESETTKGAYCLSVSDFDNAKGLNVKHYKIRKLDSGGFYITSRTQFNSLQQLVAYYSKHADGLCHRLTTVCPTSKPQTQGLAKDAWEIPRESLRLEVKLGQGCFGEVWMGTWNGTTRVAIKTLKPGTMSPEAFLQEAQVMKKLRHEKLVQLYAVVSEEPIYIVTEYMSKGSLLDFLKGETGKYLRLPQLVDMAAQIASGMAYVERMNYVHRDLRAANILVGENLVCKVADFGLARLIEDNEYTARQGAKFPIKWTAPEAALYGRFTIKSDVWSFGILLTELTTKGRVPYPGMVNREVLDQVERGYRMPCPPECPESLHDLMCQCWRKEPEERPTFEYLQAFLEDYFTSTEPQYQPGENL

[4] = molecular target: T2, Very long-chain specific acyl-CoA dehydrogenase, mitochondrial (Homo sapiens, UniProt P49748)
T2 sequence (P49748 whole entry): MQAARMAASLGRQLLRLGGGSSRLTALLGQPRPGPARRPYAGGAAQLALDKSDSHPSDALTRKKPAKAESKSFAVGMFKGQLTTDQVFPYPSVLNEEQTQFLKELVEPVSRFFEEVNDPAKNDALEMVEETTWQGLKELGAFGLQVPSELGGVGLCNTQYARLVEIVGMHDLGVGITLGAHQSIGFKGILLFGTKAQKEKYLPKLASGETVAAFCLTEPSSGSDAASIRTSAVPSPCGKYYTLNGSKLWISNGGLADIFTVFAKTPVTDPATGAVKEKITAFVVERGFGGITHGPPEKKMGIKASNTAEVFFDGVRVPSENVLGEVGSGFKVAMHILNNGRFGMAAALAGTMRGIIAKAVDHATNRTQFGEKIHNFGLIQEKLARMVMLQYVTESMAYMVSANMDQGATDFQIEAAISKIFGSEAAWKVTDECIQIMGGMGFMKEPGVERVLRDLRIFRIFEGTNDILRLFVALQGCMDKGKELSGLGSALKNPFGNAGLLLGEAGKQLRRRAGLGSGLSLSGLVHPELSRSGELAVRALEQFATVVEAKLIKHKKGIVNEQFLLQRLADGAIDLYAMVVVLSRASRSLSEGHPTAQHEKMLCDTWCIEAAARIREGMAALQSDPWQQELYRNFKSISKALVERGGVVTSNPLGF

[5] = molecular target: T3, Ferrochelatase, mitochondrial (Homo sapiens, UniProt P22830)
T3 sequence (P22830 whole entry): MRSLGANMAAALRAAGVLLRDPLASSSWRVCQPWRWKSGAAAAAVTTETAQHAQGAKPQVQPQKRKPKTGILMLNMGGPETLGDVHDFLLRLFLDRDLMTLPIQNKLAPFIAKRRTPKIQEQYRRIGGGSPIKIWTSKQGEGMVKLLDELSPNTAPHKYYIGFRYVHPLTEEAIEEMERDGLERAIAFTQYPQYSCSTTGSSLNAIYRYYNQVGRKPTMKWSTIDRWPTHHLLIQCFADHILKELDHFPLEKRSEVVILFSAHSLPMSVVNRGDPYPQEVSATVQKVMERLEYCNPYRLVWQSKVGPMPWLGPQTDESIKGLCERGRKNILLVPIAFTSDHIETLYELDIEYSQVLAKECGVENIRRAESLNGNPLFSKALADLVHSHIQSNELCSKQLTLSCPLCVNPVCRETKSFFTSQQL

Compound | Kd [1] | Kd [2] | Kd [3] | Kd [4] | Kd [5]
CCCS(=O)(=O)Nc1ccc(F)c(C(=O)c2c[nH]c3ncc(-c4ccc(Cl)cc4)cc23)c1F [VEMURAFENIB] | > 30 µM (inactive) | > 30 µM (inactive) | > 30 µM (inactive) | > 30 µM (inactive) | 1.42 µM (active)
CNC(=O)c1ccc(C)c(-n2c(C)cc(OCc3ccc(F)cc3F)c(Br)c2=O)c1 [PH-797804] | > 30 µM (inactive) | > 30 µM (inactive) | > 30 µM (inactive) | > 30 µM (inactive) | > 30 µM (inactive)
COC(=O)[C@@]1(O)C[C@H]2O[C@]1(C)n1c3ccccc3c3c4c(c5c6ccccc6n2c5c31)C(=O)NC4 [K-252A] | 0.182 µM (active) | > 30 µM (inactive) | > 30 µM (inactive) | > 30 µM (inactive) | > 30 µM (inactive)
C[C@@H](c1ccc2nccn2c1)n1nnc2ncc(-c3cnn(C)c3)nc21 [SAVOLITINIB] | > 30 µM (inactive) | > 30 µM (inactive) | > 30 µM (inactive) | > 30 µM (inactive) | > 30 µM (inactive)
CN1CCC(COc2cnc(-c3cccc(Cn4nc(-c5cccc(C#N)c5)ccc4=O)c3)nc2)CC1 [TEPOTINIB] | > 30 µM (inactive) | > 30 µM (inactive) | > 30 µM (inactive) | > 30 µM (inactive) | > 30 µM (inactive)
COc1cc(N2CCC(N3CCN(C)CC3)CC2)ccc1Nc1ncnc(Nc2ccccc2S(=O)(=O)C(C)C)n1 [ASP-3026] | > 30 µM (inactive) | 5.31 µM (active) | > 30 µM (inactive) | > 30 µM (inactive) | > 30 µM (inactive)
CNC(=O)c1ccc(-c2cnc3ncc(Cc4ccc5ncccc5c4)n3n2)cc1F [CAPMATINIB] | > 30 µM (inactive) | > 30 µM (inactive) | > 30 µM (inactive) | > 30 µM (inactive) | > 30 µM (inactive)
CCn1c(=O)c(-c2cc[nH]n2)cc2c(C)nc(N)nc21 [VOXTALISIB] | > 30 µM (inactive) | > 30 µM (inactive) | > 30 µM (inactive) | > 30 µM (inactive) | > 30 µM (inactive)
Cc1cc2c(F)c(Oc3ncnn4cc(OC[C@@H](C)OC(=O)[C@H](C)N)c(C)c34)ccc2[nH]1 [BRIVANIB ALANINATE] | > 30 µM (inactive) | > 30 µM (inactive) | > 30 µM (inactive) | > 30 µM (inactive) | > 30 µM (inactive)
COc1cc(OC)c(/C=C/S(=O)(=O)Cc2ccc(OC)c(NCC(=O)O)c2)c(OC)c1 [RIGOSERTIB] | > 30 µM (inactive) | > 30 µM (inactive) | > 30 µM (inactive) | > 30 µM (inactive) | 5.58 µM (active)
C=CC(=O)N1CCC(Oc2cc3c(Nc4ccc(Cl)c(Cl)c4F)ncnc3cc2OC)CC1 [POZIOTINIB] | > 30 µM (inactive) | > 30 µM (inactive) | > 30 µM (inactive) | > 30 µM (inactive) | > 30 µM (inactive)
Cc1ccc(-n2nc(C(C)(C)C)cc2NC(=O)NCc2cc(F)ccc2Oc2ccc3c(cnn3CCO)c2)cc1 [PEXMETINIB] | > 30 µM (inactive) | > 30 µM (inactive) | > 30 µM (inactive) | > 30 µM (inactive) | > 30 µM (inactive)
Cn1cc(-c2ccc(F)c(C(F)(F)F)c2)nc1C1CCN(c2ncnc3[nH]ncc23)CC1 [LY-2584702] | > 30 µM (inactive) | > 30 µM (inactive) | > 30 µM (inactive) | > 30 µM (inactive) | > 30 µM (inactive)
CC[C@H](Nc1ncnc2[nH]cnc12)c1nc2cccc(F)c2c(=O)n1-c1ccccc1 [IDELALISIB] | > 30 µM (inactive) | > 30 µM (inactive) | > 30 µM (inactive) | > 30 µM (inactive) | > 30 µM (inactive)
O=C1NC(=O)/C(=C/c2ccc3nccc(-c4ccncc4)c3c2)S1 [GSK-1059615] | > 30 µM (inactive) | > 30 µM (inactive) | > 30 µM (inactive) | > 30 µM (inactive) | > 30 µM (inactive)
CNC(=O)c1cc(Oc2ccc(NC(=O)Nc3ccc(Cl)c(C(F)(F)F)c3)c(F)c2)ccn1 [REGORAFENIB] | > 30 µM (inactive) | > 30 µM (inactive) | > 30 µM (inactive) | > 30 µM (inactive) | > 30 µM (inactive)
CN1N=C(N)c2cn([C@@H]3O[C@H](COP(=O)(O)O)[C@@H](O)[C@H]3O)c3ncnc1c23 [TRICIRIBINE PHOSPHATE] | > 30 µM (inactive) | > 30 µM (inactive) | > 30 µM (inactive) | > 30 µM (inactive) | > 30 µM (inactive)
OCCn1cc(-c2cnc3nnn(Cc4ccc5ncccc5c4)c3n2)cn1 [PF-04217903] | > 30 µM (inactive) | > 30 µM (inactive) | > 30 µM (inactive) | > 30 µM (inactive) | > 30 µM (inactive)
CN1CCC(CNc2ccc3ncc(-c4cccc(OC(F)(F)F)c4)n3n2)CC1 [SGI-1776] | > 30 µM (inactive) | > 30 µM (inactive) | > 30 µM (inactive) | > 30 µM (inactive) | > 30 µM (inactive)
CC(C)Nc1cc(-c2c[nH]c(C(=O)N[C@H](CO)c3cccc(Cl)c3)c2)c(Cl)cn1 [ULIXERTINIB] | > 30 µM (inactive) | > 30 µM (inactive) | > 30 µM (inactive) | > 30 µM (inactive) | > 30 µM (inactive)
CC[C@@H]1C(=O)N(C)c2cnc(Nc3ccc(C(=O)N[C@H]4CC[C@H](N5CCN(CC6CC6)CC5)CC4)cc3OC)nc2N1C(C)C [VOLASERTIB] | > 30 µM (inactive) | > 30 µM (inactive) | > 30 µM (inactive) | > 30 µM (inactive) | > 30 µM (inactive)
CN1CC[C@@H](c2c(O)cc(O)c3c(=O)cc(-c4ccccc4Cl)oc23)[C@@H]1CO | > 30 µM (inactive) | > 30 µM (inactive) | > 30 µM (inactive) | > 30 µM (inactive) | > 30 µM (inactive)
Cc1ccc(S(=O)(=O)Nc2nc3ccccc3nc2Nc2ccc3nsnc3c2)cc1 | > 30 µM (inactive) | > 30 µM (inactive) | > 30 µM (inactive) | > 30 µM (inactive) | > 30 µM (inactive)
COC(=O)N[C@@H](C)CNc1nccc(-c2cn(C(C)C)nc2-c2cc(Cl)cc(NS(C)(=O)=O)c2F)n1 [ENCORAFENIB] | > 30 µM (inactive) | 0.096 µM (active) | > 30 µM (inactive) | > 30 µM (inactive) | > 30 µM (inactive)
